Experimental data reported in patent US8367687B2, “Pyrazole derivatives” (Novartis AG, priority 2007, dated 2013).
Where two headings read alike, the source gives them in different places.

Key:
Format in all cases: biochemical
CDK4 = CDK4 (Homo sapiens, UniProt P11802); assay: CDK4 HTRF
CDK2 cyA = CDK2 cyA (Homo sapiens, UniProt P24941); assay: CDK2 cyA IMAP
hCDK1/B = hCDK1/B (Homo sapiens, UniProt P06493); assay: hCDK1/B
[1] = Table 1, read-out: CDK2 cyA IMAP
[2] = Table 2, read-out: CDK4 HTRF/ IC50
[3] = Table 2, read-out: CDK2cyA IMAP/ IC50

Chain of hCDK1/B (P06493 whole entry): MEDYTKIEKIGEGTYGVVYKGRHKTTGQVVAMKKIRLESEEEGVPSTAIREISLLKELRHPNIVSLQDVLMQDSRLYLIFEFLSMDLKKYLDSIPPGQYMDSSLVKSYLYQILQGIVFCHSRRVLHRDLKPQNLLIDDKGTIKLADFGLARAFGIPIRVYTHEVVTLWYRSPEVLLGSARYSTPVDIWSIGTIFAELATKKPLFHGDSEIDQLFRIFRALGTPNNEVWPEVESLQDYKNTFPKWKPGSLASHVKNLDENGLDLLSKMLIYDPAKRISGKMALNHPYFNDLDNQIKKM
Chain of hCDK1/B (P14635 whole entry partner): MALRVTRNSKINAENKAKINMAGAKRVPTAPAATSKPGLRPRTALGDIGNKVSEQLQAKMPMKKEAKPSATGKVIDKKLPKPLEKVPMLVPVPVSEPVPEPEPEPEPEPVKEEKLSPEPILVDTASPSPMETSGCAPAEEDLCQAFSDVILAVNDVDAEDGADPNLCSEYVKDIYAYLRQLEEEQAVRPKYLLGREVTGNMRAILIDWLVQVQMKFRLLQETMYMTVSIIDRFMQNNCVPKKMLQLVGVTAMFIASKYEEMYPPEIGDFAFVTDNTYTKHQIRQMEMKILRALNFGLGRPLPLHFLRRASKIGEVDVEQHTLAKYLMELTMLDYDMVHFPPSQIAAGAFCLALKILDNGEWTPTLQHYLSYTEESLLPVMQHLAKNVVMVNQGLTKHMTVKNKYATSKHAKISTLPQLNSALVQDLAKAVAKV
Chain of CDK4 (P11802 whole entry): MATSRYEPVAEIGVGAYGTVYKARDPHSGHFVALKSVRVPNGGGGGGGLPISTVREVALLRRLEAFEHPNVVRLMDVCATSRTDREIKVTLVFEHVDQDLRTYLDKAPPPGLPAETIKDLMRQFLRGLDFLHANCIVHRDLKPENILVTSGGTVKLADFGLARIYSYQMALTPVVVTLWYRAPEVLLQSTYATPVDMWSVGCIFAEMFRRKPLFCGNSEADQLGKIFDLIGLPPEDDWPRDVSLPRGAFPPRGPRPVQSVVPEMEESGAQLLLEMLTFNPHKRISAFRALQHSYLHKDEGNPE
Chain of CDK4 (P24385 whole entry partner): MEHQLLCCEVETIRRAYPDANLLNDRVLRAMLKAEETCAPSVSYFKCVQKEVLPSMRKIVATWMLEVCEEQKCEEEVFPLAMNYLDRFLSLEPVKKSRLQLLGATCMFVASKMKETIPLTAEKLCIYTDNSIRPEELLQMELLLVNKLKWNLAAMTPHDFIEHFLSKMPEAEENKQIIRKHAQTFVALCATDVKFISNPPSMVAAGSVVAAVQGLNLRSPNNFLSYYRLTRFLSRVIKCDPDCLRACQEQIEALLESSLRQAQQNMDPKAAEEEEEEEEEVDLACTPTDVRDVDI

Row | SMILES | IC50 (CDK4; Table 1, read-out: CDK4 HTRF) [µM] | IC50 (CDK2 cyA; [1]) [µM] | IC50 (hCDK1/B; Table 1) [µM] | IC50 (CDK4; [2]) [µM] | IC50 (CDK2 cyA; [3]) [µM] | IC50 (hCDK1/B; Table 2) [µM]
1 | CCC(CC)c1[nH]ncc1-c1ccnc(NC2CCN(C(=O)OC(C)(C)C)CC2)c1 [Example 72] | < 1 | < 5 | < 1 | – | – | –
2 | CCC(CC)c1[nH]ncc1-c1ccnc(NC2CCN(C)CC2)c1 [Example 73] | < 1 | < 10 | < 5 | – | – | –
3 | CCC(CC)c1[nH]ncc1-c1ccnc(NC2CCc3ccccc32)c1 (stereo not drawn) [Example 74] | < 5 | < 5 | < 5 | – | – | –
4 | CC(C)(C)c1[nH]ncc1-c1ccnc(NC2CCc3ccccc32)c1 (stereo not drawn) [Example 75] | < 15 | ≥ 15 | ≥ 15 | – | – | –
5 | Cc1ccccc1CNc1cc(-c2cn[nH]c2C(C)(C)C)ccn1 [Example 76] | < 10 | ≥ 15 | < 15 | – | – | –
6 | CN1CCC(Nc2cc(-c3cn[nH]c3C(C)(C)C)ccn2)CC1 [Example 77] | < 15 | < 15 | ≥ 15 | – | – | –
7 | CC(C)c1[nH]ncc1-c1ccnc(NC2CCN(C)CC2)c1 [Example 78] | < 0.5 | < 15 | < 10 | – | – | –
8 | CN1CCC(Nc2cc(-c3cn[nH]c3C3CCCC3)ccn2)CC1 [Example 79] | < 5 | ≥ 15 | < 10 | – | – | –
9 | CN1CCC(Nc2cc(-c3cn[nH]c3C3CC3)ccn2)CC1 [Example 80] | < 0.5 | ≥ 15 | < 15 | – | – | –
10 | CCC(C)c1[nH]ncc1-c1ccnc(NCc2ccccc2C)c1 (stereo not drawn) [Example 81] | < 1 | < 5 | < 5 | – | – | –
11 | CCC(C)c1[nH]ncc1-c1ccnc(NC2CCc3ccccc32)c1 (stereo not drawn) [Example 82] | < 5 | < 5 | < 5 | – | – | –
12 | Cc1n[nH]cc1-c1ccnc(NC2CCCCC2)n1 [Example 84] | – | – | – | < 1 | < 5 | < 5
13 | Cc1n[nH]cc1-c1ccnc(NC2CCCC2)n1 [Example 86] | – | – | – | < 1 | < 5 | < 5
14 | Cc1n[nH]cc1-c1ccnc(NC2CCCCCC2)n1 [Example 87] | – | – | – | < 1 | < 5 | < 5
15 | Cc1n[nH]cc1-c1ccnc(NC2CCN(C)CC2)n1 [Example 90] | – | – | – | < 0.5 | < 15 | < 15
16 | Cc1n[nH]cc1-c1ccnc(NCC(C)C)n1 [Example 92] | – | – | – | < 5 | < 5 | < 5
17 | Cc1n[nH]cc1-c1ccnc(NCCCn2ccnc2)n1 [Example 106] | – | – | – | < 5 | < 10 | < 5
18 | Cc1n[nH]cc1-c1ccnc(NC2CCc3ccccc32)n1 (stereo not drawn) [Example 112] | – | – | – | < 0.5 | < 10 | < 10
19 | Cc1n[nH]cc1-c1ccnc(NC2CCN(Cc3ccccc3)C2)n1 (stereo not drawn) [Example 114] | – | – | – | < 1 | < 10 | < 10
20 | Cc1n[nH]cc1-c1ccnc(NC2Cc3ccccc3C2)n1 [Example 125] | – | – | – | < 0.5 | < 5 | < 5
21 | Cc1n[nH]cc1-c1ccnc(NCCc2cccnc2)n1 [Example 132] | – | – | – | < 1 | < 10 | < 10
22 | Cc1n[nH]cc1-c1ccnc(NC2CCN(c3ccccc3)CC2)n1 [Example 136] | – | – | – | < 0.5 | < 5 | < 5
23 | Cc1ccccc1CNc1nccc(-c2c[nH]nc2C)n1 [Example 137] | – | – | – | < 5 | < 10 | < 10
24 | Cc1n[nH]cc1-c1ccnc(NC2CCCNC2)n1 (stereo not drawn) [Example 138] | – | – | – | < 1 | < 5 | < 5
25 | CC(C)c1n[nH]cc1-c1ccnc(NC2CCN(C(=O)OC(C)(C)C)CC2)n1 [Example 140] | – | – | – | < 0.05 | < 1 | < 0.5
26 | CC(C)c1n[nH]cc1-c1ccnc(NCCCN(C)c2ccccc2)n1 [Example 142] | – | – | – | < 5 | < 5 | < 1

Row | SMILES | IC50 (CDK4; Table 1, read-out: CDK4 HTRF) [µM] | IC50 (CDK2 cyA; [1]) [µM] | IC50 (hCDK1/B; Table 1) [µM] | IC50 (CDK4; [2]) [µM] | IC50 (CDK2 cyA; [3]) [µM] | IC50 (hCDK1/B; Table 2) [µM]
27 | CC(CN(C)C)Nc1nccc(-c2c[nH]nc2C(C)C)n1 (stereo not drawn) [Example 143] | – | – | – | < 0.5 | ≥ 15 | < 10
28 | CC(CCCC(C)(C)O)Nc1nccc(-c2c[nH]nc2C(C)C)n1 (stereo not drawn) [Example 145] | – | – | – | < 0.5 | < 5 | < 1
29 | CC(C)c1n[nH]cc1-c1ccnc(NCc2ccc(N(C)C)cc2)n1 [Example 147] | – | – | – | < 5 | < 5 | < 5
30 | CC(C)c1n[nH]cc1-c1ccnc(NCCCNC2CCCCC2)n1 [Example 148] | – | – | – | < 5 | < 10 | < 15
31 | CC(C)COCCCNc1nccc(-c2c[nH]nc2C(C)C)n1 [Example 150] | – | – | – | < 0.5 | < 5 | < 1
32 | COCC(C)Nc1nccc(-c2c[nH]nc2C(C)C)n1 (stereo not drawn) [Example 152] | – | – | – | < 0.5 | < 1 | < 1
33 | CC(C)c1n[nH]cc1-c1ccnc(NCc2ccccc2Cl)n1 [Example 153] | – | – | – | < 5 | < 1 | < 1
34 | CC(C)c1n[nH]cc1-c1ccnc(NCc2ccccc2C(F)(F)F)n1 [Example 154] | – | – | – | < 5 | < 5 | < 5
35 | CC(CCc1ccccc1)Nc1nccc(-c2c[nH]nc2C(C)C)n1 (stereo not drawn) [Example 155] | – | – | – | < 1 | < 5 | < 5
36 | CC(C)c1n[nH]cc1-c1ccnc(NCc2c(F)cccc2F)n1 [Example 157] | – | – | – | < 1 | < 5 | < 1
37 | CC(C)c1n[nH]cc1-c1ccnc(NCc2ccccc2OC(F)(F)F)n1 [Example 158] | – | – | – | < 15 | ≥ 15 | < 5
38 | Cc1nnc(CCNc2nccc(-c3c[nH]nc3C(C)C)n2)[nH]1 [Example 161] | – | – | – | < 0.5 | < 5 | < 5
39 | Cc1nnc(C(C)Nc2nccc(-c3c[nH]nc3C(C)C)n2)[nH]1 (stereo not drawn) [Example 162] | – | – | – | < 0.5 | < 15 | < 10
40 | Cc1ccccc1CNc1nccc(-c2c[nH]nc2C(C)C)n1 [Example 164] | – | – | – | < 0.5 | < 1 | < 0.5
41 | CC(C)c1n[nH]cc1-c1ccnc(NCc2ccccc2F)n1 [Example 165] | – | – | – | < 1 | < 0.5 | < 0.5
42 | CC(C)c1n[nH]cc1-c1ccnc(NCCCN(C)C)n1 [Example 167] | – | – | – | < 1 | < 10 | < 5
43 | CC(C)c1n[nH]cc1-c1ccnc(NC(C)c2ccccc2)n1 (stereo not drawn) [Example 168] | – | – | – | < 0.05 | < 5 | < 1
44 | CCC(C)Nc1nccc(-c2c[nH]nc2C(C)C)n1 (stereo not drawn) [Example 171] | – | – | – | < 0.05 | < 0.5 | < 0.5
45 | CC(C)c1n[nH]cc1-c1ccnc(NC2CCN(c3ccccc3)CC2)n1 [Example 172] | – | – | – | < 0.05 | < 0.5 | < 0.5
46 | CC(C)c1n[nH]cc1-c1ccnc(NCCN2CCCCC2)n1 [Example 173] | – | – | – | < 0.5 | ≥ 15 | < 15
47 | CC(C)c1n[nH]cc1-c1ccnc(N[C@H]2CCc3ccccc32)n1 [Example 175] | – | – | – | < 1 | < 5 | < 5
48 | CC(C)c1n[nH]cc1-c1nc(NC2CCN(C)CC2)ncc1Br [Example 180] | – | – | – | < 1 | < 5 | < 5
49 | CC(C)c1nn(C)cc1-c1ccnc(NC2CCN(C)CC2)n1 [Example 181] | – | – | – | < 0.5 | < 5 | < 5
50 | CC(C)c1n[nH]cc1-c1ccnc(N[C@@H](C)c2ccccc2)n1 [Example 182] | – | – | – | < 10 | < 10 | < 5
51 | CC(C)c1n[nH]cc1-c1ccnc(NC(C)c2ccccn2)n1 (stereo not drawn) [Example 183] | – | – | – | < 0.5 | < 10 | < 10
